Structures are written as SMILES. Entries after “also recorded” stand apart in the source; their conditions may differ. Bounds are passed on as bounds.

Results on two compounds are retold here after patent US20230122393A1, “STEROIDAL NITRONE F2 FOR USE IN THE PREVENTION AND/OR TREATMENT OF PERMANENT CEREBRAL ISCHAEMIA” (ISQUAEMIA BIOTECH, S.L., priority 2020, published 2023).

In assay [1] the test system is transient focal cerebral ischemia (tMCAO). In words: Infarct volume by TTC staining after tMCAO. It counts as in vivo, mice. The settings on record: 48 h; for infarct volume (as percentages): VEH 19.15±1.08.
Assay [2] concerns permanent focal cerebral ischemia (pMCAO). As to the kind of experiment: Infarct area/volume by TTC staining after permanent MCA occlusion (pMCAO). It counts as in vivo, mice. To be noted: F2 0.1 mg/kg i.p. at 2 and 12 hours after MCA occlusion.
Assay [3] relates to global cerebral ischemia. As to the kind of experiment: Therapeutic window of the neuroprotective effect in global cerebral ischemia. The format is in vivo, rat.
Assay [4] relates to primary neuronal cultures subjected to oxygen and glucose deprivation. The settings on record: reference [17]; cited from earlier work.
Assay [5] has as its system lipid peroxidation and ROS levels. The settings on record: preliminary results, reference [17]; cited from earlier work.
Assay [6] relates to global cerebral ischemia. The settings on record: intraperitoneal at onset of reperfusion; reference [17]; cited from earlier work.
In assay [7] the test system is permanent focal cerebral ischemia (pMCAO). As to the kind of experiment: Somatosensory evoked potentials after permanent MCA occlusion (pMCAO). To be noted: F2 0.1 mg/kg i.p. at 2 and 12 h; 72 hours post-stroke and during total time of study (3 weeks).
Protocol: Evaluation of functional brain territory in stroke mice with pMCAO and treated with F2. (A) Representative somatosensory evoked contralateral potentials recorded before and 72 hours post-stroke in treated (F2) and non-treated (vehicle, control) mice. F2 was administered at 2 and 12 hours after MCA ligation. […] In both groups, the electrical stimulus was twice the current level necessary to obtain a supramaximal motor response, typically 1-2 mA. (B) Amplitude of evoked activity in the somatosensory cortex (forepaw sensory field) in the infarcted (left panel) and non-infarcted (right panel) hemispheres of non-treated (vehicle) and treated (F2) mice over time after stroke. […] Data are presented as the means ±SEM. For every time point analysed, the black asterisks denote significant differences between non-treated (vehicle) and treated (F2) mice (two-way ANOVA followed by Tukey's test; *p<0.05, **p<0.05).
Ipsilateral activity in stroke mice with pMCAO and treated with F2. […] (C) Amplitude of somatosensory evoked activity (forepaw sensory field) in the non-damaged hemisphere of non-treated (vehicle) and treated (F2) mice over time after stroke and F2 or vehicle administration.
Here, the neuroprotective efficacy of this nitrone has been assayed in a model of permanent focal cerebral ischemia in mice. […]
Assay [8] has as its system global cerebral ischemia. As to the kind of experiment: Y-maze exploration activity test, long-term after global cerebral ischemia. To be noted: i.v. at onset of reperfusion, before sacrifice at 11 weeks, vs healthy control.
Protocol: (§1) In addition, animal behaviour was evaluated before sacrifice for the neurological evolution evaluation.
(§2) Animals were subjected to two behavioural tests for their neurological evaluation prior to sacrifice in order to assess the exploratory activity and spatial recognition and memory; the Y-maze paradigm was used to assess these functions. For the first test, the animal is positioned in the centre of the maze, allowing free exploration for 8 minutes. Exploratory activity is quantified and represented as an activity index. For the assessment of the spatial recognition and memory, the number of times the animals alternate among the three arms (triad number) is evaluated and quantified as an alternation index. Lower activity and/or alternation indexes are indications of reduced curiosity and spatial memory and consequently higher neurological deficit.
Assay [9] concerns transient focal cerebral ischemia (tMCAO). As to the kind of experiment: Grip strength test after transient middle cerebral artery occlusion (tMCAO). To be noted: for grip strength: 24 hours after reperfusion, VEH 91.76±2.00.
Protocol: Transient occlusion of a distal branch of the middle cerebral artery (tMCAO) was induced in male C57BL/6 mice (9-12-week-old, Charles River). […] Briefly, mice were anesthetized with 4% isoflurane for induction and 1.5-2% isoflurane for maintenance (in 79% N2/21% 02). After drilling a small hole on the temporal bone, the middle cerebral artery (MCA) was compressed for 60 min with a 30-G needle using a micromanipulator. During the surgery, body temperature was maintained at 37.0±0.5° C. using a homoeothermic blanket and CBF was monitored using laser-Doppler flowmetry to confirm MCA occlusion. Buprenorphine (0.05-0.1 mg/kg) was administered subcutaneously immediately before the procedure. […] Surgical inclusion criteria: a reduction in blood flow to <25% of baseline value during ischemia period, and a recovery of 75% of baseline value in the reperfusion period. […] The treatments were administered intraperitoneally at the onset of reperfusion period by an investigator blinded to the experimental condition.
Motor functional test was performed at 1 day before surgery and 24 h and 48 h after tMCAO to evaluate ischemic outcomes and monitor motor function by a blinded researcher to experimental conditions. […] A total of 6 trials were conducted for each test and the strength value was calculated as the mean of them.
Assay [10] has as its system global cerebral ischemia. In words: Neurological deficit score (NDS), therapy window study in global cerebral ischemia. The settings on record: 5 d.
Protocol: Animal model of global cerebral ischemia, experimental design and administration of nitrones. Transient forebrain ischemia was induced in adult male Wistar rats (10-12 weeks, Charles River) by the standard four-vessel occlusion model (4V0) previously described. Briefly, both vertebral arteries were irreversibly occluded by electrocoagulation under anaesthesia with a mixture of atropine, ketamine and diazepam (0.25, 62.5, and 5 mg/kg, respectively) administered by intraperitoneal injection. After 24 h, ischemia was induced by carotid occlusion with atraumatic clips for 15 min and then clips were removed from the carotid arteries to allow reperfusion. Body temperature of 37° C. was maintained. Animals were studied at 5 days after reperfusion (R5d). […] Vehicle-treated control animals were handled in the same way as treated animals.
Evaluation of neurological deficits. Neurological deficits in rats subjected to global cerebral ischemia were blindly evaluated using a scale previously described (Ayuso et al. 2015 J. Med. Chem. 58, 6704-6709; 10.1021/acs.jmedchem.5b00755). […]
Animals were subjected to a functional test before sacrifice in order to quantify their potential disability. […]
The variables quantified to evaluate de neuroprotection of NXY-059, including neurological deficit score (NDS) and neuronal death and apoptosis in brain sections, were performed as described in Example 3. […]
For assay [11], the system named is global cerebral ischemia, hippocampal CA1 and cortical regions. In words: Neuronal apoptosis by TUNEL assay, therapy window study in global cerebral ischemia. To be noted: 5 d.
Protocol: Animal model of global cerebral ischemia, experimental design and administration of nitrones. Transient forebrain ischemia was induced in adult male Wistar rats (10-12 weeks, Charles River) by the standard four-vessel occlusion model (4V0) previously described. Briefly, both vertebral arteries were irreversibly occluded by electrocoagulation under anaesthesia with a mixture of atropine, ketamine and diazepam (0.25, 62.5, and 5 mg/kg, respectively) administered by intraperitoneal injection. After 24 h, ischemia was induced by carotid occlusion with atraumatic clips for 15 min and then clips were removed from the carotid arteries to allow reperfusion. Body temperature of 37° C. was maintained. Animals were studied at 5 days after reperfusion (R5d). […] The treatments were performed with allocation concealment, assigning a random order to each vehicle or treated animal by a computer-generated randomization program. […] Vehicle-treated control animals were handled in the same way as treated animals. An independent investigator prepared the treatments for each animal according to the randomization schedule.
(§3) Brain sections. After 5 days after reperfusion, R5d animals were killed by transcardiac perfusion performed under deep anaesthesia. Perfusion via left ventricle was started with a washout of 200 mL of 0.9% NaCl, and the brains, following perfusion and fixation with 4% (w/v) paraformaldehyde solution in PBS, were removed and postfixed in the same solution overnight at 4° C. Brains were washed sequentially with 10, 20 and 30% (w/v) saccharose in PBS, embedded in Tissue-Tek O.C.T. (Sakura Finetek) and frozen at −80° C. prior to cryostat sectioning. Brain coronal sections containing the hippocampus were prepared at the level of interaural +5.7±0.2 mm on Real Capillary Gap microscope slides (Dako).
TUNEL assay. Apoptotic neurons within brain sections were detected using the Terminal deoxynucleotidyl transferase-mediated dUTP Nick-End Labeling (TUNEL) assay (Promega). For this test, 5-μm-thick coronal cryostat brain sections containing the dorsal hippocampal formation were obtained as described above and post-fixed with 4% formaldehyde in PBS for 5 min at room temperature. After washing in PBS for three times, sections were permeabilized with 0.1 M sodium citrate, pH 6.0, for 1 min at 95° C., quickly cooled in ice and washed in PBS for 5 min at room temperature. Then, brain sections were incubated with blocking solution (0.1 M Tris-HCl, pH 7.5, 3% bovine serum albumin and 20% fetal bovine serum), washed in PBS for 5 min, and post-fixed with 4% formaldehyde in PBS for 5 min. […]
The hippocampal CA1 subfield and cerebral and lateral cortex fields from a given section were analysed with fluorescence microscopy (40× objective) to count the number of apoptotic nuclei (green).
For assay [12], the system named is global cerebral ischemia. In words: Y-maze spatial recognition or alternation test, long-term after global cerebral ischemia. The settings on record: i.v. at onset of reperfusion, before sacrifice at 11 weeks, vs healthy control.
Protocol: as §1, §2
The subject of assay [13] is global cerebral ischemia, hippocampal CA1 and cortical regions. In words: Neuronal death by Fluoro-Jade B staining, therapy window study in global cerebral ischemia. The settings on record: 5 d.
Protocol: Animal model of global cerebral ischemia, experimental design and administration of nitrones. Transient forebrain ischemia was induced in adult male Wistar rats (10-12 weeks, Charles River) by the standard four-vessel occlusion model (4V0) previously described. Briefly, both vertebral arteries were irreversibly occluded by electrocoagulation under anaesthesia with a mixture of atropine, ketamine and diazepam (0.25, 62.5, and 5 mg/kg, respectively) administered by intraperitoneal injection. After 24 h, ischemia was induced by carotid occlusion with atraumatic clips for 15 min and then clips were removed from the carotid arteries to allow reperfusion. Body temperature of 37° C. was maintained. Animals were studied at 5 days after reperfusion (R5d). […] Ischemic animals were treated with nitrone F2 diluted in 10% ethanol in saline as vehicle by intravenous injection in the tail when the carotid arteries were unclamped for reperfusion. Vehicle-treated control animals were handled in the same way as treated animals.
After 5 days after reperfusion, R5d animals were killed by transcardiac perfusion performed under deep anaesthesia. Perfusion via left ventricle was started with a washout of 200 mL of 0.9% NaCl, and the brains, following perfusion and fixation with 4% (w/v) paraformaldehyde solution in PBS, were removed and postfixed in the same solution overnight at 4° C. Brains were washed sequentially with 10, 20 and 30% (w/v) saccharose in PBS, embedded in Tissue-Tek O.C.T. (Sakura Finetek) and frozen at −80° C. prior to cryostat sectioning. Brain coronal sections containing the hippocampus were prepared at the level of interaural +5.7±0.2 mm on Real Capillary Gap microscope slides (Dako).
(§4) Neuronal death evaluation. Neuronal death was evaluated by Fluoro-Jade-B staining. Brain cryosections (10 μm thick) from ischemic animals that underwent reperfusion for 5 days were used after fixation to detect neuronal death by Fluoro-Jade-B staining (Ayuso et al. 2015 J. Med. Chem. 58, 6704-6709; 10.1021/acs.jmedchem.5b00755) and visualized by fluorescence microscopy. Labelled (dead) neuronal cells (in green) were counted as in TUNEL assay (see below). Data from different animals of each experimental group were independently analysed by two observers, and treatment information was blindly performed throughout the study.
Analysis of results included neuronal damage and death, and a functional test to which the animals were subjected prior to sacrifice. All the results were obtained 5d after post-ischemic reperfusion in a model of global cerebral ischemia.
The next assay deals with SOD1. In words: SOD1 protein levels by western blot in primary neuronal cultures subjected to OGD and recovery. Background: In western blotting, separated proteins are transferred to a membrane and probed.
In assay [14] the test system is global cerebral ischemia, hippocampal CA1 region. In words: Long-term viable neurons (S6-positive cells) in hippocampal CA1 11 weeks after global cerebral ischemia. The settings on record: i.v. at onset of reperfusion; 11 weeks (77 days) after reperfusion.
Protocol: Animal model of global cerebral ischemia, experimental design and administration of nitrones. Transient forebrain ischemia was induced in adult male Wistar rats (10-12 weeks, Charles River) by the standard four-vessel occlusion model (4V0) previously described. Briefly, both vertebral arteries were irreversibly occluded by electrocoagulation under anaesthesia with a mixture of atropine, ketamine and diazepam (0.25, 62.5, and 5 mg/kg, respectively) administered by intraperitoneal injection. After 24 h, ischemia was induced by carotid occlusion with atraumatic clips for 15 min and then clips were removed from the carotid arteries to allow reperfusion. Body temperature of 37° C. was maintained. Animals were studied at 5 days after reperfusion (R5d). A power analysis was performed (http://www.biomath.info/power/ttest.htm) to determine the sample size. The level of statistical significance was fixed at 0.05, the power set at 0.8 (80%), and the sample size obtained was <6 subjects per group. The treatments were performed with allocation concealment, assigning a random order to each vehicle or treated animal by a computer-generated randomization program. […]
Because of this, a new experimental strategy had to be used, based on the staining of viable neurons and its quantification in the areas of the brain more vulnerable to the ischemic episodes such as the hippocampal CA1 region. […]
In assay [15] the test system is transient forebrain ischemia (global cerebral ischemia). In words: Dose-response of neuroprotection (Fluoro-Jade B and TUNEL) in transitory global cerebral ischemia, four-vessel occlusion. The settings on record: for half effective concentration: i.v. at onset of reperfusion; for half effective concentration / maximal effect (percentage of neuroprotection): 5 days of reperfusion.
Protocol: Animal model of global cerebral ischemia, experimental design and administration of nitrones. Transient forebrain ischemia was induced in adult male Wistar rats (10-12 weeks, Charles River) by the standard four-vessel occlusion model (4V0) previously described. Briefly, both vertebral arteries were irreversibly occluded by electrocoagulation under anaesthesia with a mixture of atropine, ketamine and diazepam (0.25, 62.5, and 5 mg/kg, respectively) administered by intraperitoneal injection. After 24 h, ischemia was induced by carotid occlusion with atraumatic clips for 15 min and then clips were removed from the carotid arteries to allow reperfusion. Body temperature of 37° C. was maintained. Animals were studied at 5 days after reperfusion (R5d). […] The treatments were performed with allocation concealment, assigning a random order to each vehicle or treated animal by a computer-generated randomization program. Ischemic animals were treated with nitrone F2 diluted in 10% ethanol in saline as vehicle by intravenous injection in the tail when the carotid arteries were unclamped for reperfusion. Vehicle-treated control animals were handled in the same way as treated animals. An independent investigator prepared the treatments for each animal according to the randomization schedule.
as §3, §4
TUNEL assay. Apoptotic neurons within brain sections were detected using the Terminal deoxynucleotidyl transferase-mediated dUTP Nick-End Labeling (TUNEL) assay (Promega). For this test, 5-μm-thick coronal cryostat brain sections containing the dorsal hippocampal formation were obtained as described above and post-fixed with 4% formaldehyde in PBS for 5 min at room temperature. After washing in PBS for three times, sections were permeabilized with 0.1 M sodium citrate, pH 6.0, for 1 min at 95° C., quickly cooled in ice and washed in PBS for 5 min at room temperature. Then, brain sections were incubated with blocking solution (0.1 M Tris-HCl, pH 7.5, 3% bovine serum albumin and 20% fetal bovine serum), washed in PBS for 5 min, and post-fixed with 4% formaldehyde in PBS for 5 min.

The mark [16] stands for this setting: F2 0.05 mg/kg i.v. 48 h after reperfusion.

Protocol for SOD1: Primary Neuronal Cultures. […] Cell suspensions from cerebral cortex were prepared from 16- to 17-day-old Sprague-Dawley rat embryos. Living cells in cell suspension were counted by trypan blue exclusion method. Cells were seeded on plastic multidishes precoated with 0.05 mg/mL poly-D-lysine at a density of 2.5×10^5 cells/cm2 and were kept at 37° C. in a 6.5% CO2 atmosphere in high glucose Dulbecco's medium supplemented with 15% heat-inactivated (56° C. for 30 min) foetal calf serum. […]
Exposure of Cell Cultures to Oxygen—Glucose Deprivation. […] F2 were analysed independently from 4 to 8 times with different batches of cultures, and each experiment was run in quadruplicate.
35-50 μg of protein cell extracts was resolved in 10 or 12% SDS-PAGE and blotted into a polyvinylidene difluoride (PVDF) membrane (GE Healthcare). […] Then, membranes were incubated with horseradish peroxidase-conjugated secondary antibodies for 1 h, developed with the ECL-Clarity (Bio-Rad) or Prime systems (GE Healthcare) and detected in a ChemiDoc imager (Bio-Rad).
The images were quantified using the quantification software ImageLab and Quantity One (Bio-Rad Laboratories). The protein levels were expressed as intensities in arbitrary units (AU).

Consider `CC(C)CCC[C@@H](C)[C@H]1CC[C@H]2[C@@H]3CCC4=C/C(=[N+](\C)[O-])CC[C@]4(C)[C@H]3CC[C@]12C` [F2, (E)-N-((8S,9S,10R,13R,14S,17R)-10,13-dimethyl-17-((R)-6-methylheptan-2-yl)-7,8,9,11,12,13,14,15,16,17-decahydro-1H-cyclopenta[a]phenanthren-3(2H,6H,10H)-ylidene)methanamine oxide], for which the “decrease of infarct volume respect to NXY059” value in assay [1] (0.1 mg/kg F2, p<0.05) is given as 20.27%. In addition, the “decrease of infarct volume respect to control VEH” value in [1] (0.1 mg/kg F2, p<0.05) worked out at 15.20%. Also, the “infarct volume (as percentages)” value in [1] (F2 0.1 mg/kg i.p. at onset of reperfusion) amounted to 16.24±0.85%. Also, the “infarct volume vs vehicle” value in [2] was “significantly reduces infarct volume”. In [2] (48 hours), the “infarcted area (TTC staining) vs non-treated” value is on record as “lower infarcted area”. The “administration time of maximum neuroprotective effect after reperfusion onset” value with global cerebral ischemia [3] (F2 0.05 mg/kg i.v.) lay within 0 to 3 h. Also, the “therapeutic window of neuroprotective effect, time after onset of reperfusion” value with global cerebral ischemia [3] (F2 0.05 mg/kg i.v.) was at most 6 h. Further, the “neuroprotective effect (cell viability) after OGD” value in assay [4] was “good neuroprotective effect in the micromolar range”. Also, the “lipid peroxidation and ROS levels” value in assay [5] is listed as “both decreased”. Besides, the “neuronal death and apoptosis in hippocampus and cortex” value in the assay on global cerebral ischemia [6] is “decreased neuronal death and apoptosis”. Besides, the “somatosensory evoked cortical response, damaged hemisphere (right)” value in assay [7] is listed as “preserved cortical response”. Besides, in the assay on global cerebral ischemia [8], the “activity index (exploration activity test, Y-maze)” value is “activity scores that were equivalent to those observed in the control group”. The grip strength came out at 110.2±5.14 grams in [9] (0.05 mg/kg F2 i.p. at onset of reperfusion) and 113.2±5.35 grams in assay [9] (0.1 mg/kg F2 i.p. at onset of reperfusion). Moreover, the “grip strength values vs vehicle” value in assay [9] (F2 0.05 or 0.1 mg/kg at onset of reperfusion, 24 h and 48 h after reperfusion) is recorded as “improved grip strength values”. Moreover, the “neurological deficit score (NDS) vs vehicle” value in the assay on global cerebral ischemia [10] (setting [16]) was “did not improve the NDS”. Besides, the “neuronal apoptosis (TUNEL) vs vehicle” value in [11] (F2 0.05 mg/kg i.v. at 6 h after reperfusion) is “significant in both hippocampus and cerebral cortex”; in assay [11] (F2 0.05 mg/kg i.v. at 48 h after reperfusion) it was “did not afford a significant decrease in the apoptosis”; in [11] (F2 0.05 mg/kg i.v., maximum effect at 0-3 hours after onset of reperfusion), “significant reduction of apoptosis”. Moreover, the “alternation index (spatial recognition test, Y-maze)” value in the assay on global cerebral ischemia [12] is recorded as “no significant differences when compared to the scores of the control group”. Further, the “neuronal death (Fluoro-Jade B) vs vehicle” value in [13] (setting [16]) is “did not afford a significant decrease in the neuronal damage”; in assay [13] (F2 0.05 mg/kg i.v. between 0 and 6 h after reperfusion, CA1 and cortex) it was “significantly decreased neuronal death”. The SOD1 levels result with SOD1 (5 μM F2, 2 h after OGD, vs untreated and control groups) was “significant increase of SOD1 levels”. The “enhancement of the SOD1 increase caused by OGD alone” value in the assay on SOD1 (5 μM F2, 24 h after OGD) amounted to 15%. Moreover, the “viable neurons (S6-positive cells) in hippocampal CA1” value in [14] is “significantly preserves neuronal viability”. Further, the half effective concentration in assay [15] (cerebral cortex) was determined as 0.015 mg/kg; in [15] (hippocampal region CA1) it was 0.025 mg/kg. Besides, the “maximal effect (percentage of neuroprotection)” value in assay [15] (cerebral cortex, reached at 0.05 mg/kg i.v. at onset of reperfusion) came out at 81%; in [15] (hippocampal region CA1, at 0.05 mg/kg i.v. at onset of reperfusion), 35%. Further, the “most effective dose in decreasing neuronal death and apoptosis” value in [15] (doses 0.01-0.1 mg/kg i.v., 5 days after reperfusion) worked out at 0.05 mg/kg.
As for `CC(C)(C)[N+]([O-])=Cc1ccc(S(=O)(=O)[O-])cc1S(=O)(=O)[O-].[Na+].[Na+]` [NXY-059, reference compound], the “infarct volume (as percentages)” value in assay [1] (NXY-059 40.0 mg/kg i.p. at onset of reperfusion) is on record as 20.37±0.93%. Also, in the assay on global cerebral ischemia [3] (NXY-059 40 mg/kg i.v., compared to F2), the therapeutic window result is “narrow therapeutic window compared to F2”. Also, in the assay with global cerebral ischemia [8], the “activity index (exploration activity test, Y-maze)” value is on record as “neurological deficit was similar to the one obtained for VEH”. Also, in the assay on global cerebral ischemia [10] (NXY-059 40 mg/kg i.v. 0-48 h after reperfusion), the “neurological deficit score (NDS) vs vehicle” value is “did not improve the NDS”. Moreover, the “neuronal apoptosis (TUNEL) vs vehicle” value in assay [11] (NXY-059 40 mg/kg i.v. between 0 and 48 h after reperfusion) is recorded as “did not afford a significant decrease in the neuronal apoptosis”. Also, the “alternation index (spatial recognition test, Y-maze)” value in the assay on global cerebral ischemia [12] is “no significant differences when compared to the scores of the control group”. The “neuronal death (Fluoro-Jade B)” value in [13] (NXY-059 40 mg/kg i.v. 1-48 h after reperfusion) is recorded as “did not induce a decrease in neuronal damage”; in assay [13] (NXY-059 40 mg/kg i.v. at reperfusion onset (0 h), 40 mg/kg), “lower neuroprotective effect; also recorded: only induced a significant decrease of neuronal damage administered at the onset of the reperfusion”. Also, the “viable neurons (S6-positive cells) in hippocampal CA1” value in [14] is on record as “did not recover the damage observed”.
